What was measured:
Type in all cases: binding
Conditions in all cases: read-out: % released into dialysate
[1] = biological target: T1, human serum albumin (HSA) (Homo sapiens, UniProt P02768); assay: equilibrium dialysis with […]-ligand; Trp-214 fluorescence quenching
T1 construct: gene ALB

[2] = biological target: T2, bovine serum albumin (BSA) (Bos taurus, UniProt P02769); assay: equilibrium dialysis with […]-ligand
T2 construct: gene ALB

[3] = biological target: T2, bovine serum albumin (BSA); assay: equilibrium dialysis with […]-ligand (weak retention)

T1 sequence (P02768 25-609): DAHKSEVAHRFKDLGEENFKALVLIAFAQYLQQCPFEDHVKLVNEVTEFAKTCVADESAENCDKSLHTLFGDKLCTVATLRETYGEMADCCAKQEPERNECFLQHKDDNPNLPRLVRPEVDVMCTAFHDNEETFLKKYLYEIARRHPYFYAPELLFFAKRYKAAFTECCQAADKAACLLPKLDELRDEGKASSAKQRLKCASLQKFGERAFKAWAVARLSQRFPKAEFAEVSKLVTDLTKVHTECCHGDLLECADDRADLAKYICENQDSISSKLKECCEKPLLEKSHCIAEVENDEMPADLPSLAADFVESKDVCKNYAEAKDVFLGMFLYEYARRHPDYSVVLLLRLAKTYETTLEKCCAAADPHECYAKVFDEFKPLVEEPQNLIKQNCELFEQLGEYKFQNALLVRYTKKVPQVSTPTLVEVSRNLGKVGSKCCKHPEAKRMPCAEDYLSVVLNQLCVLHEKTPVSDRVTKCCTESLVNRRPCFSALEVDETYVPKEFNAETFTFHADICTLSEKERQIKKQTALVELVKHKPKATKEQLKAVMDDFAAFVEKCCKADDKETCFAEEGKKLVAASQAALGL
T2 sequence (P02769 25-607): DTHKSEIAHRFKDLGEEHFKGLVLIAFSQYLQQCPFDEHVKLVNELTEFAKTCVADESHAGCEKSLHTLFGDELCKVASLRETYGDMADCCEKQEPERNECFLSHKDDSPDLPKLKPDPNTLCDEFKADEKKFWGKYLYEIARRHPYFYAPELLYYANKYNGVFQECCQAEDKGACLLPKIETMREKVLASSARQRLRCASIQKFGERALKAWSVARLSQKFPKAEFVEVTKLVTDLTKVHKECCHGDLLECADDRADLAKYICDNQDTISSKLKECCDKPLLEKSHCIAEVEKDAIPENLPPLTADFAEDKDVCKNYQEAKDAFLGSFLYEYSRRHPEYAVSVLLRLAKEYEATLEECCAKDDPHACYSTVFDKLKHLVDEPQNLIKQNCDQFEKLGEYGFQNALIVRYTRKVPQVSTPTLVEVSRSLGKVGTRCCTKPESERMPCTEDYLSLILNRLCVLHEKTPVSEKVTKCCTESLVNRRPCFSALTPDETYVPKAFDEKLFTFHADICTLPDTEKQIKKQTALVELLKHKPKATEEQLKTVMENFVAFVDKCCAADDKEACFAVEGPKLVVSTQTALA

| fraction unbound [1] | fraction unbound [2] | Structure (SMILES) | fraction unbound [3] |
| --- | --- | --- | --- |
| 0.04 ± 0.003 | 0.09 ± 0.003 | CCNC(=S)N/N=C(\c1ccccc1)c1ccccn1 [Bp4eT, 2-benzoylpyridine 4-ethyl-3-thiosemicarbazone] | – |
| 0.22 ± 0.01 | 0.21 ± 0.005 | CN(C)C(=S)NN=C(c1ccccn1)c1ccccn1 [Dp44mT, di-2-pyridylketone 4,4-dimethyl-3-thiosemicarbazone] | – |

| Structure (SMILES) | fraction unbound [1] | fraction unbound [2] | fraction unbound [3] |
| --- | --- | --- | --- |
| Cc1ncc(CO)c(C=NNC(=O)c2ccncc2)c1O [PIH, pyridoxal isonicotinoyl hydrazone] | 0.06 ± 0.003 | – | 0.39 ± 0.003 |

From publication PMC4496362, “Potentiating the cellular targeting and anti-tumor activity of Dp44mT via binding to human serum albumin: two saturable mechanisms of Dp44mT uptake by cells” (Oncotarget, 2015)
